Results on seven compounds are retold here after patent US20260151403A1, “NEK7 DEGRADERS AND METHODS OF USE THEREOF” (Captor Therapeutics S.A., priority 2022, published 2026).

In assay [1] the target is T1, [NEK7]-[compound of formula (I)]-[CRBN/DDB1] complex (Homo sapiens, UniProt Q8TDX7+Q96SW2). Description: HTRF ternary complex assay. The settings on record: dose-response, 180 min at 25° C.; read-out: HTRF ternary complex Average pEC50 by molecule (converted). The class given is binding. In outline: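 Mix of 24 nM NEK7, 52.8 nM 6×His-CRBN/Strep-DDB1, 3 nM streptavidin-Eu cryptate and 6.67 nM anti-6×His-d2 in PPI Europium detection buffer with 1 mM DTT, dose-response compound, 0.5% DMSO, 180 min at 25° C. TR-FRET (665/620) read, normalized to DMSO background, Hill-slope fit gave EC50/pEC50.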
T1 sequence (Q8TDX7 whole entry): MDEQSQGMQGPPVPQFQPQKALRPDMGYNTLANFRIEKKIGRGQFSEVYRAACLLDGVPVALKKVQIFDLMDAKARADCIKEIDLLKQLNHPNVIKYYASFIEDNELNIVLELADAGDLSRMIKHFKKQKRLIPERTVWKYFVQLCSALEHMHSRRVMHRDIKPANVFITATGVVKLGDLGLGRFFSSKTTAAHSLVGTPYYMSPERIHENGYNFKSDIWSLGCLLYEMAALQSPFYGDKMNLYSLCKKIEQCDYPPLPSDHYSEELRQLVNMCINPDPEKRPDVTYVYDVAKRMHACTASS
T1 sequence (Q96SW2 whole entry): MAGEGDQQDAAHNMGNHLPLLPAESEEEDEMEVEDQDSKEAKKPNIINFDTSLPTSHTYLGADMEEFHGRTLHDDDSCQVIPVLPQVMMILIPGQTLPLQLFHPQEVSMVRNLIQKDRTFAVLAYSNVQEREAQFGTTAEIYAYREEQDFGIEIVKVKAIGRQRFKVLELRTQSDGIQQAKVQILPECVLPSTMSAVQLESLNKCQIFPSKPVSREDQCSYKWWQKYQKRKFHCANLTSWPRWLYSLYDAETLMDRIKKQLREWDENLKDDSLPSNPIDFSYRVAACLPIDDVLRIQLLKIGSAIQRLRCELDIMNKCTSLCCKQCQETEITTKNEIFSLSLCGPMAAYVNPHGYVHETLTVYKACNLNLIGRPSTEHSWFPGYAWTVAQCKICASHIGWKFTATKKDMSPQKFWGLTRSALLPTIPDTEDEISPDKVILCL
T1 sequence (Q16531 whole entry partner): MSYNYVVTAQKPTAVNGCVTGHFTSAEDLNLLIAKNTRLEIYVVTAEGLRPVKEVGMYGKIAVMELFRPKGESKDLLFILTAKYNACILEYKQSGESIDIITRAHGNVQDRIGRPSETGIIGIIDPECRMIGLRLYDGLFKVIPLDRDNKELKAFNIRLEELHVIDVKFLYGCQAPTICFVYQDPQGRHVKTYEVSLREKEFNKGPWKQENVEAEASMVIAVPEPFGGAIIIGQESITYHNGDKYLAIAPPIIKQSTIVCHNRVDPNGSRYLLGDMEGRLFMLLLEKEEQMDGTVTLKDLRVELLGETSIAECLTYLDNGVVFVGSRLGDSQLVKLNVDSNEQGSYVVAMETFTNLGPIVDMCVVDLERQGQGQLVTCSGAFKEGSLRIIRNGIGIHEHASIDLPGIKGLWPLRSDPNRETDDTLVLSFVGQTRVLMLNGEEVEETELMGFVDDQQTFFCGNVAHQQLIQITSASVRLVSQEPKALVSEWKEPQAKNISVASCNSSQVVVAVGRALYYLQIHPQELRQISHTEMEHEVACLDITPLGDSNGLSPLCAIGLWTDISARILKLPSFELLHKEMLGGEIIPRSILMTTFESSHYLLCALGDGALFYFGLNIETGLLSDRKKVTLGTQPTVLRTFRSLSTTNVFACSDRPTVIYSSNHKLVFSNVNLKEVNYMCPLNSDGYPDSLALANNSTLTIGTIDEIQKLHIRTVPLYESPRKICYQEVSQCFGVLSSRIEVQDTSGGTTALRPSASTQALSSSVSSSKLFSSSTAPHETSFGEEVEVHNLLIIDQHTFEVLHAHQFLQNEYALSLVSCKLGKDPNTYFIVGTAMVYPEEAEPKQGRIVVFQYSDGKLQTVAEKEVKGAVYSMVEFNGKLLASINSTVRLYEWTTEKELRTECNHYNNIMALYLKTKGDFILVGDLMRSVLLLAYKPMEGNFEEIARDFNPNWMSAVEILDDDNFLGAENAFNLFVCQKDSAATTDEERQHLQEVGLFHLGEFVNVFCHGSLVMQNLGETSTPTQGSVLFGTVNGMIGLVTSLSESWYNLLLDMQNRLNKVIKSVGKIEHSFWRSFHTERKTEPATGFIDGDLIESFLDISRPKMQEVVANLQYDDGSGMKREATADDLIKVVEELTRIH
A general note: TR-FRET usually uses a lanthanide donor and a delayed reading to cut background.

The target in a further assay is NEK7-HiBiT protein (Homo sapiens, UniProt Q8TDX7). The experiment in a line: NEK7-HiBiT degradation assay (Nano-Glo HiBiT Lytic Assay) in HEK293 NEK7-HiBiT cells. It counts as cell-based. The settings on record: 24 h, conc. 0.1, 1 and 10 μM tested, concentration of the table values not stated, mean of 3 technical replicates. In outline: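 HEK293 cells with CRISPR knock-in N-terminal HiBiT-tagged NEK7 exposed to compound for 24 h at 37 °C, 5% CO2. Residual NEK7-HiBiT was read as Nano-Glo HiBiT lytic luminescence and expressed as % of DMSO control across triplicates; compounds run at 0.1, 1 and 10 μM.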
Sequence of NEK7-HiBiT protein (Q8TDX7 whole entry): as the sequence (Q8TDX7 whole entry) above
Sequence of NEK7-HiBiT protein (Q96SW2 whole entry, further chain): as the sequence (Q96SW2 whole entry) above
Sequence of NEK7-HiBiT protein (Q16531 whole entry partner): as the sequence (Q16531 whole entry partner) above
A general note: The HiBiT peptide binds its large partner to form an active luciferase.

Assay [2] has as its target T1, [NEK7]-[compound of formula (I)]-[CRBN/DDB1] complex. The experiment in a line: AlphaLISA dose response ternary complex formation assay. The class given is binding. Conditions: 1 μM compound; normalized to maximum signal of Compound 2 (positive control) and DMSO background; read-out: Normalized AlphaLISA ternary complex average signal at 1 μM molecule. In outline:
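Biotinylated NEK7 (200 nM) on streptavidin donor beads and 6×His-CRBN/Strep-DDB1 (200 nM) on anti-His acceptor beads, each at 40 μg/ml and preincubated 30 min, then mixed and added to compound in HBS pH 7.4, 0.1% Tween-20, 1 mM DTT, 2% DMSO. After 30 min at 25 °C, AlphaLISA signal was read (ex 680/em 615 nm) and normalised to DMSO background and maximal Compound 2 signal.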
In general terms: In Alpha technology, singlet oxygen from a donor bead excites a nearby acceptor bead.

Structures are written as SMILES.

Consider `CC1c2cc(C3CCCCO3)ccc2C(=O)N1C1CCC(=O)NC1=O` (stereo not drawn) [Compound 64, 3-(3-methyl-1-oxo-5-(tetrahydro-2H-pyran-2-yl)isoindolin-2-yl)piperidine-2,6-dione], for which the EC50 in assay [1] was 316 to 1000 nM. In addition, the “Levels of NEK7-HiBiT Protein (as a % of DMSO control)” value (from here on “Levels … (as a % of DMSO control)”) at NEK7-HiBiT protein is recorded as “A (Levels of NEK7-HiBiT Protein ≤ 25%)”. Also, the activation at 1 µM in assay [2] was more than 80%.
For the compound `O=C1CCC(N2Cc3cc(-c4ccc(-c5ccccc5)cn4)ccc3C2=O)C(=O)N1` (stereo not drawn) [4(2), 3-(1-oxo-5-(5-phenylpyridin-2-yl)isoindolin-2-yl)piperidine-2,6-dione], the EC50 in assay [1] is 100 to 316 nM. Further, the “Levels … (as a % of DMSO control)” value at NEK7-HiBiT protein is “A (Levels of NEK7-HiBiT Protein ≤ 25%)”. For the same compound, in assay [2], the activation at 1 µM is more than 80%.
Regarding `Cc1c(C2CCCCN2)ccc2c1CN(C1CCC(=O)NC1=O)C2=O` (stereo not drawn) [Compound 19, 3-(4-methyl-1-oxo-5-(piperidin-2-yl)isoindolin-2-yl)piperidine-2,6-dione], the EC50 in assay [1] was more than 3160 nM. Further, at NEK7-HiBiT protein, the “Levels … (as a % of DMSO control)” value was “B (Levels of NEK7-HiBiT Protein > 25% and ≤50%)”. For the same compound, in assay [2], the activation at 1 µM was less than 10%.
Take `CC1c2cc(C3CCCCN3)ccc2C(=O)N1C1CCC(=O)NC1=O` (stereo not drawn) [Compound 25, 3-(3-methyl-1-oxo-5-(piperidin-2-yl)isoindolin-2-yl)piperidine-2,6-dione]: the EC50 in assay [1] is 316 to 1000 nM. Besides, on NEK7-HiBiT protein, the “Levels … (as a % of DMSO control)” value is “A (Levels of NEK7-HiBiT Protein ≤ 25%)”. The activation at 1 µM in assay [2] is more than 80%.
As for `O=C1CCC(N2Cc3cc(-c4ccccn4)ccc3C2=O)C(=O)N1` (stereo not drawn) [2(2), 3-(1-oxo-5-(pyridin-2-yl)isoindolin-2-yl)piperidine-2,6-dione], the EC50 in assay [1] is 316 to 1000 nM. At NEK7-HiBiT protein, the “Levels … (as a % of DMSO control)” value was “B (Levels of NEK7-HiBiT Protein > 25% and ≤50%)”. Further, the activation at 1 µM in assay [2] is more than 80%.
Regarding `O=C1CCC(N2Cc3cc(C4CCCCN4)c(F)cc3C2=O)C(=O)N1` (stereo not drawn) [Compound 23, 3-(6-fluoro-1-oxo-5-(piperidin-2-yl)isoindolin-2-yl)piperidine-2,6-dione], in assay [1], the EC50 is more than 3160 nM. Further, the “Levels … (as a % of DMSO control)” value at NEK7-HiBiT protein was “B (Levels of NEK7-HiBiT Protein > 25% and ≤50%)”. In assay [2], the activation at 1 µM is less than 10%.
For `O=C1CCC(N2Cc3cc(C4CCCCN4)ccc3C2=O)C(=O)N1` (stereo not drawn) [Compound 2, 3-(1-oxo-5-(piperidin-2-yl)isoindolin-2-yl)piperidine-2,6-dione], the EC50 in assay [1] is 316 to 1000 nM. The “Levels … (as a % of DMSO control)” value on NEK7-HiBiT protein was “A (Levels of NEK7-HiBiT Protein ≤ 25%)”. In addition, the activation at 1 µM in assay [2] was more than 80%.
